Results as given in US10537610B1, “Peptide for inhibition of cancer” (priority 2018, dated 2020).
Non-standard residues stand in square brackets, D forms with d. Residues, ends and D or L forms follow the SMILES beside them.

What was measured:
[1] = test system: MCF-10A cells across HMEC-1 monolayer; assay: Transmigration (TEM) of MCF-10A cells across the endothelial monolayer; assay type: cell-based, human
Procedure: (§1) The peptides were synthesized and purified by LifeTein, LLC (Somerset, N.J., USA) with the purity of not less than 95% using PeptideSyn™ technology that incorporates solid phase fluorenylmethyloxycarbonyl (Fmoc) chemistry. The cells were treated with the peptide P4D for 0, 1, 5, or 24 hours at a concentration of 500 μM. The cells treated with the Scrambled peptide P4D (Scr; 500 μM; 0, 1, 5, or 24 hours incubation time) were used as a negative control. In order to provide the positive control of the junctions tightening for impedance-based measurements of endothelial permeability, the cells were incubated with the potent activator of TJ assembly, forskolin (FSK; BioShop, Burlington, ON, Canada), for 24 hours at a concentration of 10 μM.
HMEC-1 endothelial cells were cultured in fibronectin-coated Transwell units with polycarbonate filter and 8 μm pores (Costar, Corning, N.Y., USA) in 24-well plates for 2 days at 37° C. to form a confluent monolayer. […]
At the end of the transmigration assay, non-migrated cells were gently wiped out from the inner surface of the membrane with cosmetic cotton swab. […] The migrated cells (five randomly chosen fields of each well) were counted using the Cell Counter tool of the ImageJ software. […]

[2] = test system: breast cancer cells (MCF-7, MDA-MB-231) across HMEC-1 monolayer; assay: Transmigration (TEM) of breast cancer cells across the endothelial monolayer; assay type: cell-based, human
Procedure: as §1
HMEC-1 endothelial cells were cultured in fibronectin-coated Transwell units with polycarbonate filter and 8 μm pores (Costar, Corning, N.Y., USA) in 24-well plates for 2 days at 37° C. to form a confluent monolayer. Human breast cancer (MCF-7, MDA-MB-231) or non-tumorigenic (MCF-10A) human breast cells were starved overnight and labeled with the green fluorescent marker CellTracker Green CMFDA Dye (Molecular Probes, Eugene, Oreg., USA). An aliquot (1×10^5/well) of fluorescent breast cancer cells in serum-free medium was added in the top of the Transwell chamber, whereas the conditioned medium was used as a chemoattractant in the lower compartment. Non-tumorigenic human breast cell line MCF-10A was used as control. The wells containing the serum-free medium in the lower compartment were used to estimate the background migration. The breast cancer cells were allowed to migrate across the endothelial monolayer for 6 hours in a humidified incubator (temperature of 37° C. and 5% CO2 atmosphere) with or without the previously specified factors or with their combinations.
At the end of the transmigration assay, non-migrated cells were gently wiped out from the inner surface of the membrane with cosmetic cotton swab. The assay was documented at 200× magnification (10× eyepiece and 20× objective) with fluorescent inverted microscope Axio Vert.A1 (Zeiss, Oberkochen, Germany) and high-performance CMOS 2.3-MP AxioCam 702 mono digital camera (Zeiss) controlled by ZEN software, version 2.3 (Zeiss). The migrated cells (five randomly chosen fields of each well) were counted using the Cell Counter tool of the ImageJ software. Cell migration towards serum-free medium was treated as background and subtracted from the corresponding numbers of cells migrated towards conditioned medium.

soluble JAM-A = assay: ELISA of JAM-A antigen in plasma, murine 4T1 breast cancer model; assay type: in vivo, mouse; details: 4T1 tumor-bearing BALB/c mice and control littermates; Tβ4 15 μg/kg or TGF-β1 5 μg/kg i.p., 21 days
Procedure: All in vivo experiments were carried on female BALB/c mice aged 8 to 12 weeks purchased from Animal House of Institute of Biology, University of Bialystok (Bialystok, Poland). The mice were housed under standard conditions at the Animal House of the Medical University of Lodz (Lodz, Poland). All animal procedures and protocols were conducted in accordance with the Guide for the Care and Use of Laboratory Animals of the National Animal Care Committee and were approved by Local Ethical Committee for Animal Research in Lodz (license number 9/LB51/2017 from Jun. 2, 2017). All efforts were made to minimize animal suffering.
Murine 4T1 cells were purchased from the American Type Culture Collection (ATCC, Manassas, Va., USA). The cells were maintained in RPMI-1640 (ATCC) with 10/o fetal bovine serum (FBS) and cultured in tissue culture flasks to 80% confluence. […]
The unbound biotinylated antibody was washed away and HRP-conjugated streptavidin was added to the wells. […] Regarding the both protocols, the enzyme-substrate (HRP-TMB) reaction was terminated by the addition of a sulfuric acid solution and the color change was measured spectrophotometrically at a wavelenght of 450 nm using the Wallac 1420 VICTOR2 Multilabel Counter (PerkinElmer). The concentration of target antigen in the samples was determined by comparing the optical density of the samples to the standard curve.

Compound | transmigration of MCF-10A cells across cytokine-treated endothelium ([1]; P4D 500 μM, TNF/IFN-treated HMEC-1) | transmigration of breast cancer cells across cytokine-activated endothelial monolayer ([2]; P4D 500 μM, HMEC-1 preincubated with TNF/IFN) | Tβ4-activated TEM ([2]; P4D 500 μM, HMEC-1 preincubated with Tβ4 200 nM for 24 hours, all tested MECs (MCF-7, MDA-MB-231, MCF-10A)) | degree of TEM inhibition, MCF-7 cells compared with other MECs ([2]; P4D 500 μM, inflamed endothelium) | TEM of MCF-10A cells, effect of Tβ4 ([1]; Tβ4 200 nM, 24 hours, in the presence of the Scr peptide) | transmigration of MCF-7 and MDA-MB-231 across HMEC-1 monolayer, effect of Tβ4 ([2]; Tβ4 200 nM, 24 hours, vs. CTRL (non-treated) cells) | JAM-A level in plasma (soluble JAM-A)
CC(C)[C@H](NC(=O)[C@H](CO)NC(=O)[C@H](N)CCCCN)C(=O)N[C@H](C(=O)N[C@H](CCCNC(=N)N)C(=O)N[C@@H](CCC(=O)O)C(=O)N[C@@H](CC(=O)O)C(=O)N[C@H](C(=O)NCC(=O)N[C@H](C(=O)N[C@@H](Cc1ccc(O)cc1)C(=O)N[C@H](C(=O)N[C@@H](CS)C(N)=O)[C@@H](C)O)[C@@H](C)O)[C@@H](C)O)[C@@H](C)O [Peptide P4D, NH2-(dK)-SVT-(dR)-EDTGTYTC-CONH2] (H-[dK]SVT[dR]EDTGTYTC-NH2) | markedly inhibited | hindered | abrogated the Tβ4-activated TEM | highest degree of TEM inhibition |  |  | 
Thymosin β4 (SDKPDMAEIEKFDKSKLKKTETQEKNPLPSKETIEQEKQAGES; not fully specified; Thymosin beta-4; UniProt P62328 2-44, looked up) [Tβ4] |  |  |  |  | significantly elevated the TEM of MCF-10A cells | slightly stimulated | decrease JAM-A level in plasma
